Here are results for 13 compounds from ChEMBL document CHEMBL1777754, “Synthesis and crystallographic analysis of new sulfonamides incorporating NO-donating moieties with potent antiglaucoma action” (Bioorg Med Chem Lett, 2011).

Targets include Carbonic anhydrase 9 (Homo sapiens, UniProt Q16790); Carbonic anhydrase 1 (Homo sapiens, UniProt P00915); Carbonic anhydrase 4 (Homo sapiens, UniProt P22748); Carbonic anhydrase 12 (Homo sapiens, UniProt O43570); Carbonic anhydrase 2 (Homo sapiens, UniProt P00918).
Series [1] is described as follows: Solubility of the compound in water. Type of series: physicochemical. The following applies: buffer.
The test system of series [2] is Oryctolagus cuniculus. Nature of the series: Antiglaucoma activity in New Zealand rabbits assessed as inhibition of carbomer-induced ocular hypertension at 2 % in 50 uL administered into eye after 2 to 3 weeks of carbomer challenge (reference value: 34.2 +/- 1.4 mmHg). Type of series: functional.
Series [3] has as its system Oryctolagus cuniculus. Nature of the series: Antiglaucoma activity in New Zealand rabbits assessed as inhibition of carbomer-induced ocular hypertension at 2 % in 50 uL administered into eye after 2 to 3 weeks of carbomer challenge (reference value: 35.3 +/- 1.2 mmHg). Type of series: functional.

pKi: −log10 of the molar value.

Chain of Carbonic anhydrase 12 (O43570 whole entry): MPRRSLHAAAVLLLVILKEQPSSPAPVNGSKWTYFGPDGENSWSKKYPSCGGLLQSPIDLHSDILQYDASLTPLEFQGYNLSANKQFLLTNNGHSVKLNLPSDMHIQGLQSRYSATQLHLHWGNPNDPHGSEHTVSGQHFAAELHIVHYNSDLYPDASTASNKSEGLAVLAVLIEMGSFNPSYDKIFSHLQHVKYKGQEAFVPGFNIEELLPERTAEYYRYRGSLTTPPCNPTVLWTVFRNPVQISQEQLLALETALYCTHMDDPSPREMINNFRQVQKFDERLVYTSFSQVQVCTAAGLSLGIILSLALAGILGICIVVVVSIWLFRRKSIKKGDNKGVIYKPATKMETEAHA
Chain of Carbonic anhydrase 1 (P00915 whole entry): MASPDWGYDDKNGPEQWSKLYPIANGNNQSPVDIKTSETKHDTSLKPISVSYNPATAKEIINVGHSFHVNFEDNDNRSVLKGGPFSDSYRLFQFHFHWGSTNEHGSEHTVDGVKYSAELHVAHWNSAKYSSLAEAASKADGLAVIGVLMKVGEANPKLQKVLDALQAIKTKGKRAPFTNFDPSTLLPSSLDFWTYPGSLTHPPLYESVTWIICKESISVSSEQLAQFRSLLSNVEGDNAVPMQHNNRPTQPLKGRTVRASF
Chain of Carbonic anhydrase 4 (P22748 whole entry): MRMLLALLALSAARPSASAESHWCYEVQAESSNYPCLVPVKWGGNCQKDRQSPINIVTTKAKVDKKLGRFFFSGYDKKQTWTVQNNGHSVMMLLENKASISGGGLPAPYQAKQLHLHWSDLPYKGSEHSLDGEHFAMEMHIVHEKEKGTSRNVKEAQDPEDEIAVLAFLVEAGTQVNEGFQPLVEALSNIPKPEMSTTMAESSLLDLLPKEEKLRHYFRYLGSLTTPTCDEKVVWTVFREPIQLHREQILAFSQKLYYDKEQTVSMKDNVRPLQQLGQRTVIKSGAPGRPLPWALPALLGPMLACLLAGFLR
Description for Carbonic anhydrase 12: Inhibition of human recombinant CA12 catalytic domain by CO2 hydration assay
Description for Carbonic anhydrase 2: Inhibition of human CA2 by CO2 hydration assay
Description for Carbonic anhydrase 4: Inhibition of human CA4 by CO2 hydration assay
Description for Carbonic anhydrase 9: Inhibition of human recombinant CA9 catalytic domain by CO2 hydration assay

Take `NS(=O)(=O)c1nnc(NS(=O)(=O)c2cccc(C(=O)OCCCCO[N+](=O)[O-])c2)s1`: the pKi (as a rule, the Ki on a negative log10 scale, so that one unit is a factor of ten) at Carbonic anhydrase 9 was 6.63; on Carbonic anhydrase 1, 7.40; at Carbonic anhydrase 4 it was 6.81; at Carbonic anhydrase 12, 7.51.
Take `NS(=O)(=O)c1ccc(OCCCO[N+](=O)[O-])cc1`: the pKi is 7.08 at Carbonic anhydrase 9; 6.23 on Carbonic anhydrase 1; 7.06 on Carbonic anhydrase 2; 6.83 on Carbonic anhydrase 4; 7.08 at Carbonic anhydrase 12.
Turning to `NS(=O)(=O)c1ccc(C(=O)OCCCCO[N+](=O)[O-])cc1`, the pKi is 6.78 on Carbonic anhydrase 9; 6.72 at Carbonic anhydrase 1; 7.74 at Carbonic anhydrase 2; 7.36 on Carbonic anhydrase 4; 7.52 at Carbonic anhydrase 12. Besides, the solubility in series [1] is 2%. The Activity in the series with Oryctolagus cuniculus [2] is 20.6 mmHg.
With `NS(=O)(=O)c1ccc(C(=O)OCc2ccc(CO[N+](=O)[O-])cc2)cc1`, the pKi on Carbonic anhydrase 9 was 6.60; on Carbonic anhydrase 1, 6.62; at Carbonic anhydrase 2, 6.70; at Carbonic anhydrase 4, 6.46; at Carbonic anhydrase 12 it was 6.83.
As for `COc1cc(/C=C/C(=O)OCCCCO[N+](=O)[O-])ccc1OC(=O)c1ccc(S(N)(=O)=O)cc1`, the pKi at Carbonic anhydrase 9 is 7.96; on Carbonic anhydrase 1, 7.82; on Carbonic anhydrase 2, 8.00; on Carbonic anhydrase 4, 7.33; at Carbonic anhydrase 12, 7.72. In addition, the solubility in series [1] is listed as over 0.3%.
On to `COc1cc(/C=C/C(=O)OCCCCO[N+](=O)[O-])ccc1OC(=O)c1cccc(S(=O)(=O)Nc2nnc(S(N)(=O)=O)s2)c1`, for which the pKi on Carbonic anhydrase 9 was 6.75; at Carbonic anhydrase 1, 6.86; on Carbonic anhydrase 2 it was 7.48; on Carbonic anhydrase 4 it was 6.65; on Carbonic anhydrase 12, 7.38.
Take `NS(=O)(=O)c1nnc(NS(=O)(=O)c2ccc(C(=O)OCCCCO[N+](=O)[O-])cc2)s1`: the pKi on Carbonic anhydrase 9 is 8.00; on Carbonic anhydrase 1 it was 7.49; on Carbonic anhydrase 2 it was 8.00; at Carbonic anhydrase 4, 7.34; on Carbonic anhydrase 12, 7.51.
Turning to `COc1cc(/C=C/C(=O)OCCCCO[N+](=O)[O-])ccc1OC(=O)c1ccc(S(=O)(=O)Nc2nnc(S(N)(=O)=O)s2)cc1`, the pKi at Carbonic anhydrase 9 is 7.96; at Carbonic anhydrase 1, 7.37; at Carbonic anhydrase 2, 7.85; at Carbonic anhydrase 4, 7.42; on Carbonic anhydrase 12, 7.37.
With `COc1cc(/C=C/C(=O)OCCCCO[N+](=O)[O-])ccc1OC(=O)CCc1ccc(S(N)(=O)=O)cc1`, the pKi is 7.03 on Carbonic anhydrase 9; 6.40 on Carbonic anhydrase 1; 7.00 at Carbonic anhydrase 2; 6.86 on Carbonic anhydrase 4; 7.06 on Carbonic anhydrase 12.
Taken in the same sequence, the figures for `NS(=O)(=O)c1ccc(OCCCCO[N+](=O)[O-])cc1` were 7.60, 7.39, 7.92, 7.12 and 7.54.
Taken in the same sequence, the figures for `NS(=O)(=O)c1ccc(OCCCCCO[N+](=O)[O-])cc1` were 7.07, 6.02, 7.15, 7.05 and 6.94.
Compound `CCN(CC)CCOC(=O)c1ccc(S(=O)(=O)Nc2nnc(S(N)(=O)=O)s2)cc1` showed a pKi at Carbonic anhydrase 2 of 8.85.
`O=[N+]([O-])O[C@@H]1CO[C@H]2[C@@H]1OC[C@@H]2O` [ISOSORBIDE MONONITRATE]: the Activity in the series on Oryctolagus cuniculus [3] is 28.4 mmHg.
